What was measured:
hepatitis B virus = assay: In vivo efficacy study, HDJ/HBV mouse model (HBV DNA in plasma and liver by qPCR); design: species or system mice
Procedure: Objective: The efficacy of the compound against hepatitis B virus in mice was determined through the HDJ/HBV mouse model.
Preparation of compound: the solvent was 10% polyethylene glycol-15 hydroxystearate; a certain amount of the tested compound of formula (I) was dissolved in an aqueous solution containing 10% polyethylene glycol-15 hydroxystearate, and the mixture was vortexed and sonicated to prepare a homogeneous suspension, and the suspension was stored at 4° C. for later use.
High pressure injection of the HBV plasmid DNA solution via the tail vein of mice: the day of plasmid injection was day 0, the day after injection was day 1, and so on. On day 0, all animals were injected by tail vein with a saline solution containing 10 μg of plasmid DNA at a volume of […] of body weight, and the injection was completed within 5 seconds.
Administration: all mice were administered intragastrically twice a day (8/16 h interval) on day 1-6 and once on day 7. All mice were euthanized in the afternoon on day 7. The body weight of the mice, which was monitored every day, remained stable throughout the experiment.
Sample collection: blood was collected from the submandibular vein 4 h after the first administration in the morning on days 1, 3, and 5. All blood samples were collected in K2-EDTA anticoagulation tubes, and centrifuged for 10 min at 4° C., 7000 g to prepare about 40 μL of plasma. All mice were euthanized by CO2 four hours after administration in the morning on day 7. Blood was collected from the heart, and the plasma preparation method was the same as above. Two liver tissues were collected with 70-100 mg each, and quick-frozen by liquid nitrogen. After all samples were collected, they were stored in a refrigerator (−80° C.) for HBV DNA content detection.
Sample analysis: all plasma samples and liver samples were detected for HBV DNA by qPCR.

[1] = Metabolic stability in liver microsomes of beagle dogs; format: in vitro ADME; conditions: dog
Procedure: (§1) Objective: The metabolic stability of the tested compound of formula (I) in liver microsomes of rats, beagle dogs and cynomolgus monkeys was determined. […]

[2] = Metabolic stability in liver microsomes of cynomolgus monkeys; format: in vitro ADME; conditions: cynomolgus monkey
Procedure: as §1

CYP2C19 = molecular target: T1, CYP2C19 (Homo sapiens, UniProt P33261); assay: Inhibition of human liver microsomal cytochrome P450 isoenzyme CYP2C19; format: in vitro ADME; conditions: human liver microsomes
T1 construct: from tissue; host or cells: human liver microsomes
Procedure: Objective: The inhibitory effect of the test compound on the activity of human liver microsomal cytochrome P450 isoenzymes (CYP1A2, CYP2C9, CYP2C19, CYP2D6 and CYP3A4) was determined. […]

[3] = 10 mg/kg intragastrically twice a day
[4] = 30 mg/kg intragastrically twice a day

T1 sequence (P33261 whole entry): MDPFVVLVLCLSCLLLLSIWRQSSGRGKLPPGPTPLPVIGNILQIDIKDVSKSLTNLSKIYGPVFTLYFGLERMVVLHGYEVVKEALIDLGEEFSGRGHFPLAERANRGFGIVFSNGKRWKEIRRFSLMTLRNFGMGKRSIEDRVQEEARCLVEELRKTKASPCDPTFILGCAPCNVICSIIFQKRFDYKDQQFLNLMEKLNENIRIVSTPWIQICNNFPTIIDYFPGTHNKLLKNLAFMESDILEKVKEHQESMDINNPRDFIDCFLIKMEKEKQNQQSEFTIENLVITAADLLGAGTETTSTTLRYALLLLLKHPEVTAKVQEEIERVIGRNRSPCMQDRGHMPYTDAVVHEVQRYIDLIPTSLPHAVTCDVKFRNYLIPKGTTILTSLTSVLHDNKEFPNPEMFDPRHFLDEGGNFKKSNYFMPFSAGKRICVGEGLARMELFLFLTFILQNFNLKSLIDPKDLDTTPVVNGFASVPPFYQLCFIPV

## CC1(NC(=O)C(=O)c2c(Cl)c(C(=O)Nc3cc(F)c(F)c(F)c3)c3n2CCC3)CCC(CC(=O)O)CC1 (centres unmarked) [Compound of formula (I)]
Hepatitis B virus; [3]
  HBV-DNA reduction, Liver (day 7): 0.94 Δ Log10 copies/100 ng
  HBV-DNA reduction, Plasma (day 5): 2.0 Δ Log10 copies/μL
Hepatitis B virus; [4]
  HBV-DNA reduction, Liver (day 7): 2.36 Δ Log10 copies/100 ng
  HBV-DNA reduction, Plasma (day 5): 3.57 Δ Log10 copies/μL
[1]; beagle, microsomes
  microsomal CLint at 1 μM: < 9.6 µL/min/mg
[1]; Beagle dogs liver microsomes
  CLint scaled at 1 μM: < 13.8 mL/min/kg
[1]; Beagle dogs liver microsomes, 1 μM compound, 0.5 mg/mL
  half-life at 1 μM: > 2.42 h
[2]; microsomes
  microsomal CLint at 1 μM: < 9.6 µL/min/mg
[2]; Cynomolgus monkeys liver microsomes
  CLint scaled at 1 μM: < 13 mL/min/kg
[2]; Cynomolgus monkeys liver microsomes, 1 μM compound, 0.5 mg/mL
  half-life at 1 μM: > 2.42 h
CYP2C19
  IC50: > 50 µM
